Results on three compounds are retold here after patent publication US11414385B2, “Compounds and methods for treating, detecting, and identifying compounds to treat apicomplexan parasitic diseases” (The University of Chicago, priority 2015, dated 2022).

pIC50: −log10 of the molar value. ≈ marks a conversion by molar mass, not a printed value. Where “and” joins values, the source holds several entries; their conditions need not be identical. Equal entries are not always repeated. Entries after “also recorded” stand apart in the source; their conditions may differ. Where two headings read alike, the source gives them in different places.

Data set [1] can be described thus: Aqueous kinetic solubility pH 7.4. To be noted: for solubility kinetic: PBS pH 7.4. The class given is physicochemical.
In data set [2] the test system is T. gondii bradyzoites (EGS strain). The data set can be described thus: EGS strain bradyzoite assay (cysts in HFF, dolichos/BAG1 staining). The class given is cell-based, Toxoplasma gondii. On the procedure: (§1) HFF cells were grown in IMDM (1×, [+] glutamine, [+] 25 mM HEPES, [+] Phenol red, 10% FBS, [Gibco, Denmark]) on removable, sterile glass disks in the bottom of a clear, flat-bottomed 24-well plate. Cultures were infected with 3×10^4 parasites (EGS strain) per well, in 0.5 mL media and plate was returned to incubator at 37° C. overnight. The following day, the media was removed and clear IMDM and compounds were added to making various concentrations of the drug, to a total volume of 0.5 mL. Two wells were filled with media only, as a control. Plates were returned to the 37° C. incubator for 72 hours.
Efficacy was determined following fixation. Staining was used to determine the numbers of cysts in cultures without and with treatment with the test compounds. Cells were fixed using 4% paraformaldehyde and stained with Fluorescein-labeled Dolichos Biflorus Agglutinin, DAPI, and anti-BAG1, and anti-SAG1. Disks were removed and mounted onto glass slides and visualized using microscopy (Nikon Tl7). Slides were also scanned using a CRi Pannoramic Scan Whole Slide Scanner and viewed using Panoramic Viewer Software.
as §1, with “[gibco,” for “[Gibco,”, “2” for “Two”, “72 hours, and checked once every 24” for “72”, “hours. If tachyzoites were visible in the control before 72 hours, the cells were fixed and stained.” for “hours.”
Cells were fixed using 4% paraformaldehyde and stained with Fluorescein-labeled Dolichos Biflorus Agglutinin, DAPI, and BAG1. Disks were removed and mounted onto glass slides and visualized using microscopy (Nikon Tl7). Slides were scanned using a CRi Pannoramic Scan Whole Slide Scanner and viewed using Panoramic Viewer Software. Effects of the compounds were quantified by counting cysts in the controls and treated cells. Cysts and persisting organisms were counted in a representative field of view and then multiplied by a factor determined by the total area of the disk in order to estimate the number of cysts and organisms in each condition.
HFF cells were grown in IMDM (1×, [+] glutamine, [+] 25 mM HEPES, [+] Phenol red, 10% FBS, [gibco, Denmark]) on removable, sterile glass disks in the bottom of a clear, flat-bottomed 24-well plate. Cultures were infected with 3×10^4 parasites (EGS strain) per well, in 0.5 mL media and plate was returned to incubator at 37° C. overnight. The following day, the media was removed and clear IMDM and compounds were added to making various concentrations of the drug, to a total volume of 0.5 mL. 2 wells were filled with media only, as a control. Plates were returned to the 37° C. incubator for 72 hours, and checked once every 24 hours. If tachyzoites were visible in the control before 72 hours, the cells were fixed and stained. Cells were fixed using 4% paraformaldehyde and stained with Fluorescein-labeled Dolichos Biflorus Agglutinin, DAPI, and BAG1. Disks were removed and mounted onto glass slides and visualized using microscopy (Nikon Tl7). Slides were scanned using a CRi Pannoramic Scan Whole Slide Scanner and viewed using Panoramic Viewer Software. Effects of the compounds were quantified by counting cysts in the controls and treated cells. Cysts and persisting organisms were counted in a representative field of view and then multiplied by a factor determined by the total area of the disk in order to estimate the number of cysts and organisms in each condition. Data was collected using Gen5 software. IC50 was calculated by graphical analysis in Excel.

The test system of data set [3] is S. cerevisiae wild type parental AD1-9 strain. The data set can be described thus: Yeast growth inhibition on glycerol medium, wild type. The class given is cell-based, Saccharomyces cerevisiae. To be noted: 1 mM, 100, 5 and 1 μM. How it is done: Three S. cerevisiae strains were used: M221Q and M221F cytochrome b mutants and wild type. They share the same nuclear genetic background deriving from AD1-9 (kindly given by M. Ghislain, UCL, Belgium). AD1-9 harbors multiple deletions in the ABC transporter genes that render the strain more sensitive to drugs than standard yeast strains^S65.
Protocol: Yeast strains were grown over 48 hours at 33° C. in liquid YPG medium [1% yeast extract, 2% (wt/vol) peptone, and 3% (vol/vol) glycerol). Cultures were diluted to an OD600 of 0.05 and grown for 2 hrs. Cultures were then combined with YPG containing 6% melted agar for a total volume of 15-20 mL and poured onto OmniTray single-well rectangular plates that measured 86 mm by 128 mm (ThermoScientific). Filter paper disks (7 mm diameter, […]) were placed onto the cooled agar plates. […] A single disk with DMSO on each plate was used as a control. Plates were incubated at 33° C. Images were obtained after 4 days using GelDoc XR Imaging System (BioRad) and Quantity One software. Drug effect was assessed by the presence and size of a zone of inhibition around the disks.

The nature of data set [4]: Microsomal metabolic stability, mouse. The data set is classed as in vitro ADME.
A further data set in a line: FaSSIF solubility pH 6.5. The data set is classed as physicochemical. To be noted: pH 6.5.
A short description of data set [5]: Microsomal metabolic stability, human. The data set is classed as in vitro ADME.
Data set [6] is described as follows: Cytotoxicity assay with WST-1 in HFF. The data set is classed as cell-based. The settings on record: human, human foreskin fibroblasts (HFF); read-out: HFF Toxicity CC50. How it is done:
(§2) Toxicity assays were conducted using WST-1 cell proliferation reagent (Roche). HFF were grown on a flat, clear-bottomed, black 96-well plate. Confluent HFF were treated with inhibitory compounds at concentrations equal to those being tested in challenge assays. Compounds were diluted in IMDM-C, and 20 μl were added to each designated well, with triplicates for each condition. A gradient of 2 fold-decreasing concentrations of DMSO in clear IMDM-C was used as a control. The plate was incubated for 72 hours at 37° C. 10 μl of WST-1 reagent (Roche) were added to each well and the cells were incubated for 30 to 60 minutes. Absorbance was read using a fluorometer at 420 nm. A higher degree of color change (and absorbance) indicated mitochondrial activity and cell viability.
as §2, with “(Roche) as described in Fomovska, et. al. (18,19).” for “(Roche).”, “of 10 μM and 50 μM.” for “equal to those being tested in challenge assays.”, “DMSO from 10% to 0%” for “DMSO”, “fluorimeter” for “fluorometer”

For data set [7], the system named is P. falciparum strains D6, TM91-C235, W2, C2B. The data set can be described thus: Malaria SYBR Green I-Based Fluorescence (MSF) Assay. The settings on record: Plasmodium falciparum, read-out: P. falciparum IC50. The class given is cell-based, Plasmodium falciparum. How it is done:
Testing of P. falciparum: D6 is a drug sensitive strain from Sierra Leone, C235 is a multi-drug resistant strain from Thailand, W2 is a chloroquine resistant strain from Thailand, and C2B has resistance to a variety of drugs including atovaquone.
D6 is a drug sensitive strain from Sierra Leone, C235 is a multi-drug resistant strain from Thailand, W2 is a chloroquine resistant strain from Thailand, and C2B has resistance to a variety of drugs including atovaquone. These assays were performed as described.
(§3) Compound activity against P. falciparum, a causative agent of malaria, was tested using the Malaria SYBR Green I—Based Fluorescence (MSF) Assay. This; microtiter plate drug sensitivity assay uses the presence of malarial DNA as a measure of parasitic proliferation in the presence of antimalarial drugs or experimental compounds based on modifications of previously described methods by Plouffe et al (20) and Johnson et al. As the intercalation of SYBR Green I dye and its resulting fluorescence is relative to parasite growth, a test compound that inhibits the growth of the parasite will result in a lower fluorescence.
Selected compounds were examined for activity against four strains of P. falciparum: D6 (CDC/Sierra Leone), a drug-sensitive strain readily killed by chloroquine, TM91-C235, a multi-drug resistant strain resistant to chloroquine, W2, a chloroquine resistant strain from Thailand, and C2B has resistance to a variety of drugs including atovaquone.
D6 is a drug sensitive strain from Sierra Leone, C235 is a multi-drug resistant strain from Thailand, W2 is a chloroquine resistant strain from Thailand, and C2B has resistance to a variety of drugs including atovaquone. These assays were performed using standard protocols.
as §3, with “known in the art.” for “by Plouffe et al (20) and Johnson et al.”, “fluorescence. Selected compounds were examined for activity against four strains of P. falciparum: D6 (CDC/Sierra Leone), a drugsensitive strain readily killed by chloroquine, TM91-C235, a multi-drug resistant strain resistant to chloroquine, W2, a chloroquine resistant strain from Thailand, and C2B has resistance to a variety of drugs including atovaquone.” for “fluorescence.”

The subject of the next data set is RH-YFP. In words: Assessment of compound degradation and microbicidal effect on Toxoplasma. The class given is cell-based, Toxoplasma gondii. On the procedure: HFF were cultured in a 96-well plate and infected with RH-YFP as described above on Day 0, 20 μL of compound was added to 9 wells for each compound and concentration (3 conditions, 3 wells per condition). In condition I, media was removed and replaced with fresh media on Day 3. In condition II, media was removed and replaced with fresh media and more compound on Day 3. In condition III, media was not replaced on Day 3, nor was the compound refreshed. On Day 6, media was removed and replaced with clean media in all wells. On Day 3, 6, and 9 plate was read in the fluorimeter and analyzed graphically in Prism (GraphPad Software).

A short description of a further data set: in vitro. The data set is classed as in vitro ADME. To be noted: dog, MDCK-MDR1.
Another data set has as its system MDR1. The data set can be described thus: in vitro. The class given is in vitro ADME. To be noted: dog, MDCK-MDR1, MDCK-MDR1 Efflux Ratio.
Data set [8] relates to human foreskin fibroblasts (HFF). The data set can be described thus: Cytotoxicity assay with WST-1 in HFF. The class given is cell-based. The settings on record: 10 μM and 50 μM, WST-1. How it is done: as §2
as §2, with “(Roche) as described in Fomovska, et. al. (18,19).” for “(Roche).”, “of 10 μM and 50 μM.” for “equal to those being tested in challenge assays.”, “DMSO from 10% to 0%” for “DMSO”, “fluorimeter” for “fluorometer”
For orientation: Tetrazolium assays rely on reduction of a dye to a coloured formazan, in cell work by metabolically active cells.

What is called solubility is how much of the substance goes into solution per volume. Higher therefore signals a readily soluble substance. Consider `Cc1[nH]c2ccccc2c(=O)c1-c1ccc(Oc2ccc(OC(F)(F)F)cc2)cc1` [ELQ271, 2-methyl-3-(4-(4-(trifluoromethoxy)phenoxy)phenyl) quinolin-4(1H)-one, reference compound], for which the solubility in data set [1] (aqueous buffer, kinetic from dmso stock, 100 mM Phosphate Buffer (pH 7.4)) turned out to be 0.15 µM (≈ 0.0617 µg/mL). In addition, the “reduction of EGS cysts in vitro” value in data set [2] (10 μM) is reported as “reduce the EGS cysts; also recorded: inhibited EGS in vitro”. For the same compound, in [3], the “growth inhibition of wild type yeast” value is “effective”. For the same compound, in data set [4], the “Mouse liver microsomes T1/2” value was 7.4688 h.
In general, kinetic solubility refers to the concentration staying in solution when a stock, usually in DMSO, is diluted into the medium. The term pIC50 denotes the IC50 on a negative log10 scale, so that one unit is a factor of ten. Broadly, the CC50 is the concentration giving 50% cytotoxicity. Regarding `Cc1[nH]c2ccccc2c(=O)c1-c1ccc(Oc2ccc(OC(F)(F)F)cc2)cc1` [ELQ 271, reference compound], the solubility in “FaSSIF solubility pH 6.5” is 3.4 µM (≈ 1.4 µg/mL). In data set [5], the “Human microsomal stability T1/2” value was 2.87 h and 2.865 h. The compound further registered a kinetic solubility in data set [1] of 0.15 µM (≈ 0.0617 µg/mL). Further, the pIC50 in data set [2] (Toxoplasma gondii, EGS strain, read-out: T. gondii Bradyzoite IC50) is 6.00; in data set [7] (C2B strain (multi-drug resistant, atovaquone resistant)), 6.89; in [7] (D6 strain (drug sensitive)), 7.52; in data set [7] (TM91C235 strain (multi-drug resistant)) it was 7.05; in data set [7] (W2 strain (chloroquine resistant)) it was 7.00. In addition, the CC50 at 72 h in data set [6] amounted to 20000 nM. In addition, the “Mouse microsomal stability T1/2” value in data set [4] is more than 3.33 h. The half-life in data set [4] (mouse, liver microsomes, read-out: Mouse microsomal stability T1/2) was more than 3.33 h.
In general, Papp A→B refers to the apparent permeability from the apical to the basolateral side of a cell layer. For orientation: efflux ratio means a quotient of directional permeabilities that is used to spot active efflux. Turning to `Cc1[nH]c2c(c(=O)c1-c1ccc(Oc3ccc(Cl)cc3)cc1)CCCC2` [JAG050, 3-(4-(4-chlorophenoxy)phenyl)-2-methyl-5,6,7,8-tetrahydroquinolin-4(1H)-one], in data set [5], the “Human liver microsomes T1/2” value was 1.651 h. The “compound degradation over time” value in the data set on RH-YFP (6-day exposure in culture) is “did not appear that the compound was being degraded over time”. The “microbicidal effect” value in the data set with RH-YFP (RH-YFP, media replaced) is “Neither compound was found to be microbicidal”. The compound further displayed a kinetic solubility in data set [1] (PBS, pH 7.4, aqueous buffer, kinetic from dmso stock) of 16 µM (≈ 5.85 µg/mL). In data set [2] (1 μM and 10 μM, EGS), the “reduction in the number of true cysts and small organisms” value is reported as “statistically significant reduction”. In addition, the Pseudocysts in data set [2] (part a, 1 μM) is listed as 23.25 ± 10.31; in data set [2] (part a, 10 μM), 20.5 ± 2.9; in data set [2] (part b, 1 μM), 2269; in data set [2] (part b, 10 μM) it was 1921. Also, the Small organisms in data set [2] (part a, 1 μM) is on record as 58 ± 24; in data set [2] (part a, 10 μM) it was 31 ± 16; in data set [2] (part b, 1 μM) it was 5086; in data set [2] (part b, 10 μM) it was 3018. In addition, the “True Cysts” value was 0.25 ± 0.5 in data set [2] (part a, 1 μM); 1 ± 0.82 in data set [2] (part a, 10 μM); 29 in data set [2] (part b, 1 μM); 88 in data set [2] (part b, 10 μM). Moreover, the Papp A→B in the data set “in vitro” is more than 10 ×10⁻⁶ cm/s. The efflux ratio in the data set on MDR1 was less than 1.5. Besides, the “toxicity to human foreskin fibroblasts” value in data set [8] is listed as “no toxicity”. In addition, in [4], the “Mouse liver microsomes T1/2” value worked out at 1.142 h.
